{"source": "patent US8455487B2", "about": "“Methods of controlling insects” (Syngenta Participations AG, priority 2007, dated 2013)", "key": {"pollen beetles [1]": {"tested_on": "pollen beetles", "assay": "B.2 unreplicated field test, control of pollen beetle in winter oilseed rape (vs lambda-cyhalothrin)", "type": "in vivo, Meligethes", "details": "for % Control 1DAA: foliar", "procedure": "An unreplicated field test was carried out on Winter oilseed rape, (crop stage BBCH 55) and which was under attack by actively foraging pollen beetles (adult beetles: 2.32 beetle/flower cluster). The active ingredient pymetrozine ((E)-4,5-dihydro-6-methyl-4-(3-pyridylmethyleneamino)-1,2,4-triazin-3(2H)-one; formulated as Chess 50% WG) was tested at rates of 12.5, 50 and 200 g ai/ha and compared to the activity of lambda-cyhalothrin (formulated as Karate Zeon 10CS) at 5 g ai/ha. Foliar application of the compounds under test was effected using a conventional spray boom. The degree of pest infestation was assessed pre-spray (average of 2.3 adult pollen beetles per flower cluster in the check plot) and compared to that observed 1day after application."}, "pollen beetles [2]": {"tested_on": "pollen beetles", "assay": "B.3 field trial, control of pollen beetle in oilseed rape, extremely high pest pressure (vs lambda cyhalothrin and thiacloprid)", "type": "in vivo, Meligethes", "details": "foliar", "procedure": "A third field trial (randomized complete block) was carried out on oilseed rape, which had reached crop stage BBCH 55 (new growth with 30 to 60 cm height; flower buds, open flowers, some small seed pods formed) and which was under attack by actively foraging pollen beetles (adult beetles: 10 beetle/flower cluster). The active ingredient pymetrozine ((E)-4,5-dihydro-6-methyl-4-(3-pyridylmethyleneamino)-1,2,4-triazin-3(2H)-one; formulated as Plenum 50% WG) was tested at rates of 50, 100 and 150 g ai/ha and compared to the activity of lambda cyhalothrin (7.5 g ai/ha) and thiacloprid (72 g ai/ha). Foliar application of the compounds under test was effected using a conventional spray boom and a volume of 400 L/ha. The degree of pest control was assessed pre-spray, and compared to that observed 2 hours, 1, 3 and 5 days after application."}, "[3]": {"tested_on": "pyrethroid resistant Pollen Beetle", "assay": "B.4 field trial, control of pyrethroid resistant pollen beetle in oilseed rape", "type": "in vivo, Meligethes", "procedure": "A further field trial (randomized complete block, 30 racemes per plot) was carried out on oilseed rape, which had reached crop stage BBCH 57-59 (individual flower buds—secondary inflorescence—visible but still closed) and which was under attack by actively foraging pollen beetles (adult beetles: average of 30 adult beetles/plot). The active ingredient pymetrozine ((E)-4,5-dihydro-6-methyl-4-(3-pyridylmethylene-amino)-1,2,4-triazin-3(2H)-one; formulated as Plenum 50% WG) was tested at rates of 50, 100 and 150 g ai/ha and compared to the activity of lambda cyhalothrin (7.5 g ai/ha) and thiacloprid (72 g ai/ha). Foliar application of the compounds under test was effected using a conventional spray boom and a volume of 500 L/ha. The degree of pest control was assessed pre-spray, and compared to that observed 1 and 3 days after application."}, "[4]": {"tested_on": "pyrethroid resistant Pollen Beetle", "assay": "B.5 three field trials, control of pyrethroid resistant pollen beetle in oilseed rape", "type": "in vivo, Meligethes", "details": "foliar", "procedure": "Three further field trials (randomized complete block, 25 plants per plot) were carried out on oilseed rape, which had reached crop stage BBCH 57-63 and which was under attack by actively foraging pollen beetles (adult beetles: average of 27 adult beetles/plot). The active ingredient pymetrozine ((E)-4,5-dihydro-6-methyl-4-(3-pyridylmethylene-amino)-1,2,4-triazin-3(2H)-one; formulated as Plenum 50% WG) was tested at rates of 75, 100 and 150 g ai/ha and compared to the activity of lambda cyhalothrin (7.5 g ai/ha) and thiacloprid (72 g ai/ha). Foliar application of the compounds under test was effected using a conventional spray boom and a volume of 300 L/ha. The degree of pest control was assessed pre-spray, and compared to that observed 1, 4 and 7 days after application."}, "pollen beetles [5]": {"tested_on": "pollen beetles", "assay": "B.1 field trial, control of pollen beetle in winter oilseed rape (vs Lavender oil and Quassan 30)", "type": "in vivo, Meligethes", "details": "foliar", "procedure": "A randomized complete block field trial was carried out on winter oilseed rape, which had reached crop stage BBCH 55 (flower buds, open flowers, some small seed pods formed) and which was under attack by actively foraging pollen beetles (adult beetles: 1 beetle/flower cluster). The active ingredient pymetrozine ((E)-4,5-dihydro-6-methyl-4-(3-pyridylmethyleneamino)-1,2,4-triazin-3(2H)-one; formulated as Plenum 50% WG) was tested at rates of 50 and 150 g ai/ha and compared to the activity of Lavender oil (at rates of 1000 g ai/ha and 2500 g ai/ha) and Quassia amara extract (Quassan 30; applied at rates of 30, 90 and 270 g ai/ha). Foliar application of the compounds under test was effected using a conventional spray boom and a volume of 500 L/ha. The degree of pest control was assessed pre-spray, and compared to that observed 1, 3 and 5 days after application."}, "[6]": {"tested_on": "insects from the Coccinellidae family", "details": "Sechser et al. 2002 J. Pest Science 75:72-77; cited from earlier work"}, "[7]": {"tested_on": "insects from the Carabidae family", "details": "Sechser et al. 2002 J. Pest Science 75:72-77; cited from earlier work"}, "[8]": {"tested_on": "insects from the Staphylinidae family", "details": "Sechser et al. 2002 J. Pest Science 75:72-77; cited from earlier work"}}, "data": [{"smiles": "CC1(C)[C@H](C(=O)O[C@H](C#N)c2cccc(Oc3ccccc3)c2)[C@@H]1/C=C(\\Cl)C(F)(F)F", "note": "(racemic) [Lambda cyhalothrin]", "values": [{"measurement": "% Control 1DAA", "setting": "pollen beetles [1]; 5 g ai/ha, 1DAA", "result": 100, "unit": "%"}, {"measurement": "% Control", "setting": "pollen beetles [2]; 7.5 g ai/ha, 1 DAA", "result": 75, "unit": "%"}, {"measurement": "% Control", "setting": "pollen beetles [2]; 7.5 g ai/ha, 3 DAA", "result": 92, "unit": "%"}, {"measurement": "% Control", "setting": "pollen beetles [2]; 7.5 g ai/ha, 5 DAA", "result": 23, "unit": "%"}, {"measurement": "% Control", "setting": "pollen beetles [2]; 7.5 g ai/ha, 2 hrs aa", "result": 63.4, "unit": "%"}, {"measurement": "% Control", "setting": "[3]; 7.5 g ai/ha, foliar, 1 DAA", "result": 73, "unit": "%"}, {"measurement": "% Control", "setting": "[3]; 7.5 g ai/ha, foliar, 3 DAA", "result": 60, "unit": "%"}, {"measurement": "level of control (in words)", "setting": "[3]; recommended field rate (7.5 g ai/ha)", "result": "low level of control"}, {"measurement": "Mean % Control", "setting": "[4]; 7.5 g ai/ha, 1 DAA", "result": 33.0, "unit": "%"}, {"measurement": "Mean % Control", "setting": "[4]; 7.5 g ai/ha, 4 DAA", "result": 20.0, "unit": "%"}, {"measurement": "Mean % Control", "setting": "[4]; 7.5 g ai/ha, 7 DAA", "result": 18.1, "unit": "%"}]}, {"smiles": "CC1=NNC(=O)N(N=Cc2cccnc2)C1", "note": "[Pymetrozine, 4,5-dihydro-6-methyl-4-(3-pyridylmethyleneamino)-1,2,4-triazin-3(2H)-one]", "values": [{"measurement": "Percentage Control", "setting": "pollen beetles [5]; 50 g ai/ha, 1 DAA", "result": 90, "unit": "%"}, {"measurement": "Percentage Control", "setting": "pollen beetles [5]; 50 g ai/ha, 3 DAA", "result": 98, "unit": "%"}, {"measurement": "Percentage Control", "setting": "pollen beetles [5]; 50 g ai/ha, 5DAA", "result": 99, "unit": "%"}, {"measurement": "Percentage Control", "setting": "pollen beetles [5]; 150 g ai/ha, 1 DAA", "result": 86, "unit": "%"}, {"measurement": "Percentage Control", "setting": "pollen beetles [5]; 150 g ai/ha, 3 DAA", "result": 92, "unit": "%"}, {"measurement": "Percentage Control", "setting": "pollen beetles [5]; 150 g ai/ha, 5DAA", "result": 95, "unit": "%"}, {"measurement": "% Control 1DAA", "setting": "pollen beetles [1]; 12.5 g ai/ha, 1DAA", "result": 90, "unit": "%"}, {"measurement": "% Control 1DAA", "setting": "pollen beetles [1]; 50 g ai/ha, 1 DAA", "result": 98, "unit": "%"}, {"measurement": "% Control 1DAA", "setting": "pollen beetles [1]; 200 g ai/ha, 1DAA", "result": 100, "unit": "%"}, {"measurement": "control of Meligethes (in words)", "setting": "pollen beetles [1]; at all rates (12.5, 50, 200 g ai/ha), 1DAA", "result": "excellent control"}, {"measurement": "% Control", "setting": "pollen beetles [2]; 50 g ai/ha, 1 DAA", "result": 19, "unit": "%"}, {"measurement": "% Control", "setting": "pollen beetles [2]; 50 g ai/ha, 3 DAA", "result": 44, "unit": "%"}, {"measurement": "% Control", "setting": "pollen beetles [2]; 50 g ai/ha, 5DAA", "result": 0, "unit": "%"}, {"measurement": "% Control", "setting": "pollen beetles [2]; 50 g ai/ha, 2 hrs aa", "result": 37.3, "unit": "%"}, {"measurement": "% Control", "setting": "pollen beetles [2]; 100 g ai/ha, 1 DAA", "result": 61, "unit": "%"}, {"measurement": "% Control", "setting": "pollen beetles [2]; 100 g ai/ha, 3 DAA", "result": 77, "unit": "%"}, {"measurement": "% Control", "setting": "pollen beetles [2]; 100 g ai/ha, 5 DAA", "result": 0, "unit": "%"}, {"measurement": "% Control", "setting": "pollen beetles [2]; 100 g ai/ha, 2 hrs aa", "result": 39.9, "unit": "%"}, {"measurement": "% Control", "setting": "pollen beetles [2]; 150 g ai/ha, 1 DAA", "result": 61, "unit": "%"}, {"measurement": "% Control", "setting": "pollen beetles [2]; 150 g ai/ha, 3 DAA", "result": 84, "unit": "%"}, {"measurement": "% Control", "setting": "pollen beetles [2]; 150 g ai/ha, 5DAA", "result": 0, "unit": "%"}, {"measurement": "% Control", "setting": "pollen beetles [2]; 150 g ai/ha, 2 hrs aa", "result": 42.5, "unit": "%"}, {"measurement": "% Control", "setting": "[3]; 3DAA, rates 50, 100 and 150 g ai/ha", "result": "> 90", "unit": "%"}, {"measurement": "% Control", "setting": "[3]; 50 g ai/ha, foliar, 1 DAA", "result": 60, "unit": "%"}, {"measurement": "% Control", "setting": "[3]; 50 g ai/ha, foliar, 3 DAA", "result": 96, "unit": "%"}, {"measurement": "% Control", "setting": "[3]; 100 g ai/ha, foliar, 1 DAA", "result": 62, "unit": "%"}, {"measurement": "% Control", "setting": "[3]; 100 g ai/ha, foliar, 3 DAA", "result": 97, "unit": "%"}, {"measurement": "% Control", "setting": "[3]; 150 g ai/ha, foliar, 1 DAA", "result": 78, "unit": "%"}, {"measurement": "% Control", "setting": "[3]; 150 g ai/ha, foliar, 3 DAA", "result": 96, "unit": "%"}, {"measurement": "Mean % Control", "setting": "[4]; 75 g ai/ha, 1 DAA", "result": 89.9, "unit": "%"}, {"measurement": "Mean % Control", "setting": "[4]; 75 g ai/ha, 4 DAA", "result": 72.4, "unit": "%"}, {"measurement": "Mean % Control", "setting": "[4]; 75 g ai/ha, 7 DAA", "result": 92.8, "unit": "%"}, {"measurement": "Mean % Control", "setting": "[4]; 100 g ai/ha, 1 DAA", "result": 87.2, "unit": "%"}, {"measurement": "Mean % Control", "setting": "[4]; 100 g ai/ha, 4 DAA", "result": 72.9, "unit": "%"}, {"measurement": "Mean % Control", "setting": "[4]; 100 g ai/ha, 7 DAA", "result": 92.8, "unit": "%"}, {"measurement": "Mean % Control", "setting": "[4]; 150 g ai/ha, 1 DAA", "result": 95.2, "unit": "%"}, {"measurement": "Mean % Control", "setting": "[4]; 150 g ai/ha, 4 DAA", "result": 77.4, "unit": "%"}, {"measurement": "Mean % Control", "setting": "[4]; 150 g ai/ha, 7 DAA", "result": 91.3, "unit": "%"}, {"measurement": "effect on insects (in words)", "setting": "[6]", "result": "no effect"}, {"measurement": "effect on insects (in words)", "setting": "[7]", "result": "no effect"}, {"measurement": "effect on insects (in words)", "setting": "[8]", "result": "no effect"}]}, {"smiles": "N#C/N=C1\\SCCN1Cc1ccc(Cl)nc1", "note": "[Thiacloprid]", "values": [{"measurement": "% Control", "setting": "pollen beetles [2]; 72 g ai/ha, 1 DAA", "result": 67, "unit": "%"}, {"measurement": "% Control", "setting": "pollen beetles [2]; 72 g ai/ha, 3 DAA", "result": 92, "unit": "%"}, {"measurement": "% Control", "setting": "pollen beetles [2]; 72 g ai/ha, 5 DAA", "result": 0, "unit": "%"}, {"measurement": "% Control", "setting": "pollen beetles [2]; 72 g ai/ha, 2 hrs aa", "result": 39.9, "unit": "%"}, {"measurement": "% Control", "setting": "[3]; 72 g ai/ha, foliar, 1 DAA", "result": 63, "unit": "%"}, {"measurement": "% Control", "setting": "[3]; 72 g ai/ha, foliar, 3 DAA", "result": 94, "unit": "%"}, {"measurement": "Mean % Control", "setting": "[4]; 72 g ai/ha, 1 DAA", "result": 74.7, "unit": "%"}, {"measurement": "Mean % Control", "setting": "[4]; 72 g ai/ha, 4 DAA", "result": 92.5, "unit": "%"}, {"measurement": "Mean % Control", "setting": "[4]; 72 g ai/ha, 7 DAA", "result": 78.3, "unit": "%"}]}]}
